Test results as given in the supplement of paper PMC10307832.

Tests used:
Test in all cases: relative viability (nuclei count vs DMSO), 5 days (fraction); higher = more cells survive
[1] = compound: C1=CC(=CC=C1C2=CC(=C(S2)NC(=O)N)C(=O)N)F [TPCA-1] + O=C(CCCCCCC(=O)Nc1ccccc1)NO [Vorinostat] (partner 1 µM)
Summary of the method: (§1)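 Nuclei were stained with Hoechst during a one-step fixation (final 0.05% Triton X-100, 1% formaldehyde, 1 ug/ml Hoechst) carried out 5 days after dosing, then counted on 4× images. The cells, lung cancer lines in 1536-well plates, had been dosed by pin tool the day after seeding with one drug alone or a fixed anchor-drug dose plus five library-drug doses (not always all listed) in √10 steps. Relative viability is the nuclei count in treated wells divided by that in vehicle wells, and each value is the median of duplicate plates.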

[2] = compound: C[C@]12O[C@H](C[C@]1(O)CO)n1c3ccccc3c3c4c(c5c6ccccc6n2c5c31)CNC4=O [Lestaurtinib] + Cc1nc(Nc2ncc(C(=O)Nc3c(C)cccc3Cl)s2)cc(N2CCN(CCO)CC2)n1 [Dasatinib] (partner 0.075 µM)
Summary of the method: as §1

[3] = compound: C1/C(=C\C2=CC=CS2)/C(=O)/C(=C/C3=CC=CS3)/C1 + CC1(C)CCC(c2ccc(Cl)cc2)=C(CN2CCN(c3ccc(C(=O)NS(=O)(=O)c4ccc(N[C@H](CCN5CCOCC5)CSc5ccccc5)c(S(=O)(=O)C(F)(F)F)c4)cc3)CC2)C1 [Navitoclax] (partner 0.5 µM)
Summary of the method: as §1

[4] = compound: C1/C(=C\C2=CC=CS2)/C(=O)/C(=C/C3=CC=CS3)/C1 + CS(=O)(=O)CCNCc1ccc(-c2ccc3ncnc(Nc4ccc(OCc5cccc(F)c5)c(Cl)c4)c3c2)o1 [Lapatinib] (partner 2 µM)
Summary of the method: as §1

Cell Line	relative viability ([1]; first compound 0.04 µM)	relative viability ([1]; first compound 0.1265 µM)	relative viability ([1]; first compound 0.4 µM)	relative viability ([1]; first compound 1.265 µM)	relative viability ([1]; first compound 4 µM)	relative viability ([2]; first compound 0.005 µM)	relative viability ([2]; first compound 0.01581 µM)	relative viability ([2]; first compound 0.05 µM)	relative viability ([2]; first compound 0.1581 µM)	relative viability ([2]; first compound 0.5 µM)	relative viability ([3]; first compound 0.2 µM)	relative viability ([3]; first compound 0.6325 µM)	relative viability ([3]; first compound 2 µM)	relative viability ([3]; first compound 6.325 µM)	relative viability ([3]; first compound 20 µM)	relative viability ([4]; first compound 0.2 µM)	relative viability ([4]; first compound 0.6325 µM)	relative viability ([4]; first compound 2 µM)	relative viability ([4]; first compound 6.325 µM)	relative viability ([4]; first compound 20 µM)
NCI-H2087	0.734	0.759	0.911	0.629	0.266	0.843	0.81	0.494	0.724	0.319	1.13	1.04	0.933	0.669	1.05	0.866	0.825	1.08	0.894	1.09
NCI-H2126	0.843	0.695	0.891	0.559	0.238	0.678	0.759	0.59	0.624	0.463	0.941	0.79	0.832	0.628	0.845	0.774	0.751	0.787	0.691	0.745
NCI-H2170	0.965	0.881	0.779	0.724	0.628	0.493	0.551	0.466	0.364	0.376	0.655	0.565	0.678	0.516	0.547	0.301	0.255	0.282	0.232	0.283
NCI-H2228	0.733	0.813	0.933	0.501	0.567	0.494	0.546	0.497	0.22	0.18	0.823	1.3	0.904	0.73	1.05	1.22	1.12	1.14	0.939	1
NCI-H2347	0.8	0.551	0.803	0.527	0.516	0.278	0.15	0.319	0.252	0.253	0.721	0.741	0.725	0.857	0.801	1.03	0.977	0.901	0.898	0.915
NCI-H2405	1.12	0.983	1.15	0.975	0.103	0.199	0.211	0.186	0.196	0.17	1.23	0.892	1.15	0.766	1.08	1.12	1.07	1.33	0.887	1.14
NCI-H3122	1.34	0.814	0.955	1	0.897	0.881	0.871	0.869	1.15	0.598	1.02	1.02	1.02	1.01	1.02	1	1.06	1.04	0.877	0.995
PC-3 [JPC-3]	0.787	0.765	0.963	0.818	0.284	1.01	1.02	0.843	0.857	0.483	0.83	0.753	0.904	0.716	0.841	0.445	0.406	0.512	0.461	0.446
PC-14	0.838	0.802	0.802	0.639	0.448	0.294	0.286	0.231	0.13	0.0741	1.05	0.987	0.978	0.88	0.999	0.352	0.362	0.353	0.293	0.27
RERF-LC-KJ	0.76	0.688	0.664	0.671	0.46	0.902	0.908	0.526	0.648	0.316	0.949	0.995	0.965	0.787	0.86	0.915	0.943	0.827	0.893	0.764
SK-LU-1	0.872	0.672	0.774	0.577	0.449	0.155	0.168	0.146	0.161	0.126	0.698	0.767	0.813	0.969	0.799	0.91	0.787	0.846	0.721	0.922
SK-MES-1	1.14	1.01	0.966	1.02	0.438	0.396	0.333	0.426	0.206	0.159	1.28	1.3	1.17	1	1.14	0.498	0.45	0.486	0.322	0.395
SW 1573	0.998	0.6	0.876	0.787	0.233	0.605	0.454	0.246	0.162	0.0823	0.908	0.979	1.15	0.862	0.833	1.07	1.15	1.17	1.09	1.03
